Counter-ions that a name gives are not always drawn.

Holding throughout (assay type): in vivo
In one data set the test system is mice. The data set is described as follows: Acute oral toxicity in mice. The settings on record: 500 mg/kg orally, 7 days. An excerpt: The compounds (I) of this invention can inhibit the calcium entrance into the cerebral synaptosome and show excellent central calcium antagonistic activity and/or excellent calcium antagonistic activity in cerebral blood vessel, and can be used for the treatment and prophylaxis of cerebral diseases due to cerebral blood flow disorder at acute and chronic periods, for example, subarachnoid hemorrhage, cerebral infarction, etc. The compounds (I) of this invention have also an activity for protecting cerebral neurocyte. For example, when 2-(4-chlorophenyl)-4-(diethylamino)acetyl-3,4-dihydro-2H-1,4-benzothiazinewas intraperitoneally administered to evanescent cerebral ischemic rats with ligating four vessels in a dose of 1.5 mg/kg twice a day for four days, it increased the number of normal pyramidal cells at hippocampul CA1 region in about 90% in comparison with the non-medicated group. Accordingly, the compounds (I) of this invention can effectively be used for the prophylaxis, treatment and amelioration of sequelae of cerebral neurocyte dyscrasia, for example, disturbances of consciousness (e.g. somnolenz, sopor, coma, stupor, clouding of consciousness, etc.), motor paralysis (e.g. parkinsonism, etc.), cerebral neuropathy (e.g. dysuria, etc.), speech and language disorders (e.g. articulation disorders, aphasia, semantic aphasia, etc.), sensitive disorders (e.g. pain, sysesthesia, heat sensibility disorder, etc.), psychological disorders (e.g. dementia, hallucination, delusion, delirium, poriomania, melancholia, neurosis, emotional incontinence, etc.), and the like, and further the prophylaxis of palindromia and also the prophylaxis of exacerbation and progression of the symptoms. […] In addition, the compounds (I) of this invention have low toxicity and has high safety.

Data set [1] has as its system normal pyramidal cells at hippocampul CA1 region. As to the kind of experiment: Number of normal pyramidal cells in evanescent cerebral ischemic rats with ligating four vessels. The settings on record: 1.5 mg/kg intraperitoneally twice a day for four days, four vessels ligated. The text has this: The compounds (I) of this invention can inhibit the calcium entrance into the cerebral synaptosome and show excellent central calcium antagonistic activity and/or excellent calcium antagonistic activity in cerebral blood vessel, and can be used for the treatment and prophylaxis of cerebral diseases due to cerebral blood flow disorder at acute and chronic periods, for example, subarachnoid hemorrhage, cerebral infarction, etc. The compounds (I) of this invention have also an activity for protecting cerebral neurocyte. For example, when 2-(4-chlorophenyl)-4-(diethylamino)acetyl-3,4-dihydro-2H-1,4-benzothiazinewas intraperitoneally administered to evanescent cerebral ischemic rats with ligating four vessels in a dose of 1.5 mg/kg twice a day for four days, it increased the number of normal pyramidal cells at hippocampul CA1 region in about 90% in comparison with the non-medicated group. […]

The test system of data set [2] is cerebral anoxia induced by potassium cyanide. The data set is described as follows: Activity for protecting cerebral anoxia induced by potassium cyanide (survival time). The settings on record: 10 mg/kg orally, mice; potassium cyanide 2.4 mg/kg tail vein one hour later.

Take `CN(C)CCCN1C(=O)C(c2cccc(C(F)(F)F)c2)Sc2ccc3ccccc3c21.O=C(O)C(=O)O` (centres unmarked) [1-[3-(dimethylamino)propyl]-3-(3-trifluoromethylphenyl)-1H-naphtho[2,1-b][1,4]thiazin-2(3H)-one oxalate]: the mortality of mice entry in the data set on mice is on record as “no mouse died even after 7 days”.

On to `CCN(CC)CC(=O)N1CC(c2ccc(Cl)cc2)Sc2ccc3ccccc3c21` (centres unmarked) [3-(4-chlorophenyl)-1-(diethylamino)acetyl-2,3-dihydro-1H-naphtho[2,1-b][1,4]thiazine oxalate], for which the mortality of mice entry with mice is “no mouse died even after 7 days”.

Regarding `CCN(CC)CC(=O)N1CC(c2ccc(Cl)cc2)Sc2ccccc21` (centres unmarked) [2-(4-chlorophenyl)-4-(diethylamino)acetyl-3,4-dihydro-2H-1,4-benzothiazine], the “increase of the number of normal pyramidal cells at hippocampul CA1 region in comparison with the non-medicated group” value in data set [1] is “about 90%”.

“4-(dimethylamino)acetyl-2-(4-fluorophenyl)-3,4-dihydro-2H-1,4-benzothiazine oxalate [Example 1]”: the “Prolonging rate of survival time” value in data set [2] is 62%.

As for `CCN(CC)CC(=O)N1CC(c2ccc(Cl)cc2)Sc2ccccc21` (centres unmarked) [2-(4-chlorophenyl)-4-(diethylamino)acetyl-3,4-dihydro-2H-1,4-benzothiazineoxalate], the mortality of mice result in the data set on mice is given as “no mouse died even after 7 days”.

The record behind these values is patent US5246929A, “Naphtho thiazine (or oxaline) derivatives and preparations thereof” (Tanabe Seiyaku Co., Ltd., priority 1990, dated 1993).
